{
  "source": "patent US9078949B2",
  "about": "“Compositions of partially deacetylated chitin derivatives” (GENIS HF., priority 2005, dated 2015)",
  "key": {"Chitinase A [1]": {"target": "T1, Chitinase A (Serratia marcescens, UniProt P07254)", "T1 sequence (P07254 24-563)": "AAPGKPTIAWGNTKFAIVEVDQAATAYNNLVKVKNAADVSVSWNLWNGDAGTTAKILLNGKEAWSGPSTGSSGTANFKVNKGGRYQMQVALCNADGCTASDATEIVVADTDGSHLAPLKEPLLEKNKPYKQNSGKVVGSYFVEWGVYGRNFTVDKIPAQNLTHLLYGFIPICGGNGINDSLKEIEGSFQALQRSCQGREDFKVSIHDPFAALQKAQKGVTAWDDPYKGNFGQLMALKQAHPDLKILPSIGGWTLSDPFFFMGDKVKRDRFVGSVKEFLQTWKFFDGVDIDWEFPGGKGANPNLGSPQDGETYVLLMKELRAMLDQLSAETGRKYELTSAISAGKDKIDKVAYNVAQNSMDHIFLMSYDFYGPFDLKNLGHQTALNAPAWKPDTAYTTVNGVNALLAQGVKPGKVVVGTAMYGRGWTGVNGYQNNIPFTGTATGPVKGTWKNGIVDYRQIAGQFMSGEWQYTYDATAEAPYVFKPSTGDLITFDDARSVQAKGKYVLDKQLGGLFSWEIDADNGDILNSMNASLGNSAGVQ", "test": "Blocking of Chitinase A activity (4-MU-A3 substrate, fluorescence)", "format": "biochemical", "details": "for blocking of chitinase activity: pH 7.4", "procedure": "Chitooligosaccharides (ChOS) (lots No. G020418 and G020218) were fractionated into homologue fractions, either by cation exchange chromatography or gel permeation chromatography or by the combination of both methods. The products were freeze dried and analysed for structure and sequence by MALDI-TOF mass spectrometry. Three other un-fractionated ChOS lots from Genis were also analysed by the same MALDI-TOF method (lots No. G040823, G050421 and G050421UF; where UF stands for ultrafiltrated through 1 kDa membrane to reduce the content of DP≦5).\nA purified Chitinase A preparation from S. marcescens was used as a standard Family 18 chitinase, and 4-methylumbelliferyl-beta-D-N,N′-triacetylchitotrioside (4-MU-A3), a chitin tetramer (A4) analogue, was used as a standard chitinase substrate.\nThe standard Chitinase A solution was 0.5 nM (500 pM) in 0.1 mg/ml BSA, 50 mM phosphate buffer pH 7.4 (Chit-A sol.) and the substrate solution was 40 μM 4-MU-A3 in 50 mM phosphate buffer pH 7.4.\nDifferent concentration of each pure ChOS homologue (usually 0, 25, 50, 100, 200, 400 and 800 μM) was made in the substrate buffer. For the assay, 25 μl of the Chit-A solution was mixed with 25 μl of the substrate/blocking solution, incubated at 37° C. for 10 min. The reaction was stopped with 1.95 ml 0.2 M sodium […] buffer (Na2CO3). The formation of the product, 4-Methylumbelliferone (4-MU) was read for each reaction in a Perken-Elmer LS SOB Fluorometer. The excitation wavelength was 380 nm (5 nm adjusting slit) and the emission wavelength was 460 nm (4 nm adjusting slit). Each reaction was read in triplicate. […] Affinity of each homologue was calculated as inverted IC50.\nEven tough the chitinase A has an optimal activity at pH 5.5, the pH for the blocking experiments was adjusted at pH 7.4. This was done in order to free the amine groups of ChOS from protons, since earlier pilot experiments performed at pH 5.5 indicated low blocking activities of the ChOS homologues. Also this pH better resembles the physiological pH of blood and other physiological fluids, better reflecting the behaviour of the oligosaccharides in the human body."}, "[2]": {"target": "HC gp-39 (39-kDa Human Cartilage Glycoprotein) (Homo sapiens, UniProt P36222)", "sequence (P36222 22-383)": "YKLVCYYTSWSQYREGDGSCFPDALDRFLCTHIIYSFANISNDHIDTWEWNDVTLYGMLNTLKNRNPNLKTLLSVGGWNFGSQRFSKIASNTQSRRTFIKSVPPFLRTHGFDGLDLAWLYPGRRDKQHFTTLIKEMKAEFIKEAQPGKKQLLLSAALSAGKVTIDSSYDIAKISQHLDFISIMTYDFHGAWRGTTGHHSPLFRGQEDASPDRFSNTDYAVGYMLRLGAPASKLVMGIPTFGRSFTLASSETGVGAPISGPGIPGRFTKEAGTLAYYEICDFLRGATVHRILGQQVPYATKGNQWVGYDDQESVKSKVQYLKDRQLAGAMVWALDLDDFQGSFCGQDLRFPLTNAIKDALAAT", "test": "Binding to HC gp-39 by intrinsic tryptophan fluorescence", "experimental": "The affinities of non-covalent complexes between ChOS and HC gp-39 were analysed making use of the change of the intrinsic tryptophan fluorescence of the protein under binding conditions. The change of fluorescence intensity is caused by ligand-induced changes of the solvent cover of tryptophan residues and positively correlated with the sugar concentration.\nHC gp-39 was dissolved in 25 mM Tris-HCl buffer pH 7.4 containing 1 mM dithiothreitol to a final concentration of 1.00 μM (protein solution). Different concentrations of homologues were prepared in 25 mM Tris-HCl buffer pH 7.4 containing 1 mM dithiothreitol (sugar solution). […] The fluorescence was read for each reaction in a Perkin-Elmer LS SOB fluorescence spectrometer (Perkin-Elmer, Überlingen, Germany). […] Each reaction was measured in triplicate.\nFrom the row fluorescence data the fluorescence of the blank was subtracted. F-F0 was plotted versus the concentration of the homologue and the data were fitted by non-linear regression to a one-site saturation model employing SigmaPlot® software to obtain binding isotherms. y=Bmax*x/(Kd+x) Bmax: fluorescence intensity for a saturated binding domain of HC gp-39 Kd: dissociation constant."}, "Chitinase A [3]": {"target": "T1, Chitinase A", "test": "Cleavage of oligomers by Chitinase A judged by MALDI-TOF (biostability)", "format": "in vitro ADME, S. marcescens", "details": "assay conditions (pH 5.5 and pH 7.4)"}, "[4]": {"test": "Absorption of chitooligosaccharides into the blood of a human volunteer (MALDI-TOF MS, GPC, HPIEC)", "format": "in vivo", "details": "for Mass calc (HPIEC homologue): blood sample (7.0 ml) after 3 weeks of ChOS consumption", "procedure": "Chitooligomers composed of N-acetyl glucosamine and glucosamine were prepared by Genis, Reykjavik, Iceland. Briefly, chitin was partially deacetylated in alkali, washed and hydrolysed to oligomers by chitinase. Oligomers were ultrafiltrated, desalted and spray dried to a fine white powder. Average degree of deacetylation was 47% (FA 0.53). Analysis and quantification of oligomers and homologues were performed, using the same methods as for the blood.\nA voluntary subject was consuming daily 1.8 g of ChOS (Genis ehf; S41124-1K) for a period of 4 weeks. Blood samples were collected within a period of 6 weeks. The first sample was taken before consumption of ChOS. The following 4 samples were taken weekly starting 1 week after the first consumption. Sample 6 was taken 2 weeks after stopping the consumption of ChOS. The volume of each sample was 7.0 ml. The blood samples were centrifuged for 30 min at 3000 rpm. The serum was collected. Methanol and sodium chloride were added to a final concentration of 30% methanol and 0.1 mg/ml sodium chloride followed by another centrifugation step. Samples of 500 μl were filtered through 3 kDa cut-off membranes (ultrafiltration). The supernatant was filled up for 3 times. Appropriate filtrates were pooled, the methanol was removed in vacuum, and the samples were finally lyophilised.\nThe lyophilised samples (app. 100 μg) were redissolved in 100 μl of methanol/water (v/v 50:50). An aliquot of the solution was mixed on the target with 2 μl of a solution of DHB in 30% aqueous ethanol ([…]). The drop was dried under a gentle stream of air. Mass spectra were recorded on a Bruker Reflex II (Daltonik, Bremen, Germany) in the positive ion mode. For ionisation, a nitrogen laser (337 nm, 3 ns pulse width, 3 Hz) was used. All spectra were measured in the reflector mode using external calibration. Monoisotopic peaks are labelled in all mass spectra.\nThe lyophilised samples (appr. 100 μg) were redissolved in 100 μl of methanol/deuterium oxide (v/v 50:50). A 10-fold molar excess of hexadeutero acetic anhydride was added as well as 3 drops of glacial tetradeutero acetic acid. The solution was stirred at 30° C. for 12 h. The reaction was stopped by addition of an equimolar amount of ammonia. The solutions were lyophilised and redissolved in 100 μl of ammonia. The concentration of ammonia was set to a 10-fold molar excess with respect to the moles of N-acetyl glucosamine units (GlcNAc or A). The solution was stirred at 22° C. over night. The ammonia was removed in vacuum, followed by lyophilisation of the samples. […] The concentration of potassium hydroxide was set to a 2-fold molar excess with respect to the moles of GlcNAc units. The solution was stirred for 10 h at r. t. neutralized by addition of cation exchange resin (H^+ form) followed by filtration and lyophilisation of the filtrate.\nMALDI-TOF mass spectra were taken as described in Example 4. The quantification of relative signal intensities leads to the composition of homologues in the mixture.\nThe samples are prepared as described under Homologue determination by MALDI-TOF MS. Subsequently, a standard was added to each sample. The standard, a chitin oligomer (An), has to be of the same DP+/−1 as the analyte. A serial dilution of this standard was used. A comparison of the signal intensities of the analyte with the standard gives the concentration of the analyte. […]\nMixtures of homologues (and oligomers) obtained from the GPC separation were analysed by HPIEC. […]"}},
  "note": "Like-named read-outs stand apart in the source and are kept apart here.",
  "data": [
    {"compound": "NC1C(OC2C(CO)OC(OC3C(CO)OC(OC4C(CO)OC(OC5C(CO)OC(OC6C(CO)OC(OC7C(CO)OC(OC8C(CO)OC(OC9C(CO)OC(O)C(N)C9O)C(N)C8O)C(N)C7O)C(N)C6O)C(N)C5O)C(N)C4O)C(N)C3O)C(N)C2O)OC(CO)C(O)C1O", "note": "(stereo not drawn) [Homologue D9]", "values": [
      {"measurement": "blocking of chitinase activity", "setting": "Chitinase A [1]", "value": "poor blockers"}
    ]},
    {"compound": "N[C@H]1[C@H](O[C@H]2[C@H](O)[C@@H](N)[C@H](O[C@H]3[C@H](O)[C@@H](N)[C@H](O[C@H]4[C@H](O)[C@@H](N)[C@H](O[C@H]5[C@H](O)[C@@H](N)[C@H](O[C@H]6[C@H](O)[C@@H](N)C(O)O[C@@H]6CO)O[C@@H]5CO)O[C@@H]4CO)O[C@@H]3CO)O[C@@H]2CO)O[C@H](CO)[C@@H](O)[C@@H]1O", "note": "(stereo partly drawn) [Homologue D6]", "values": [
      {"measurement": "blocking of chitinase activity", "setting": "Chitinase A [1]", "value": "poor blockers"},
      {"measurement": "IC50", "setting": "Chitinase A [1]; pH 7.4, 37° C., 10 min, 4-MU-A3 substrate, NB = no blocking found, read-out: IC50", "value": 1980, "unit": "µM"},
      {"measurement": "dissociation constant", "setting": "[2]", "value": "μmolar range"}
    ]},
    {"compound": "CC(=O)N[C@H]1[C@H](O[C@H]2[C@H](O)[C@@H](NC(C)=O)[C@H](O[C@H]3[C@H](O)[C@@H](NC(C)=O)C(O)O[C@@H]3CO)O[C@@H]2CO)O[C@H](CO)[C@@H](O[C@@H]2O[C@H](CO)[C@@H](O[C@@H]3O[C@H](CO)[C@@H](O[C@@H]4O[C@H](CO)[C@@H](O)[C@H](O)[C@H]4NC(C)=O)[C@H](O)[C@H]3NC(C)=O)[C@H](O)[C@H]2NC(C)=O)[C@@H]1O", "note": "(stereo partly drawn) [Homologue A6]", "values": [
      {"measurement": "cleavage by Chitinase A", "setting": "Chitinase A [3]", "value": "cleaved"}
    ]},
    {"compound": "NC1C(OC2C(CO)OC(OC3C(CO)OC(OC4C(CO)OC(OC5C(CO)OC(OC6C(CO)OC(OC7C(CO)OC(OC8C(CO)OC(OC9C(CO)OC(OC%10C(CO)OC(OC%11C(CO)OC(OC%12C(CO)OC(O)C(N)C%12O)C(N)C%11O)C(N)C%10O)C(N)C9O)C(N)C8O)C(N)C7O)C(N)C6O)C(N)C5O)C(N)C4O)C(N)C3O)C(N)C2O)OC(CO)C(O)C1O", "note": "(stereo not drawn) [Homologue D12]", "values": [
      {"measurement": "blocking of chitinase activity", "setting": "Chitinase A [1]", "value": "poor blockers"}
    ]},
    {"compound": "CC(=O)N[C@H]1[C@H](O[C@H]2[C@H](O)[C@@H](NC(C)=O)C(O)O[C@@H]2CO)O[C@H](CO)[C@@H](O)[C@@H]1O", "note": "(stereo partly drawn) [Homologue A2]", "values": [
      {"measurement": "Mass calc (HPIEC homologue)", "setting": "[4]; GPC, HPIEC and MALDI-TOF", "value": 270, "unit": "μg"},
      {"measurement": "Conc (HPIEC homologue)", "setting": "[4]; blood sample after 3 weeks of ChOS consumption, GPC, HPIEC and MALDI-TOF", "value": 39, "unit": "μg/mL"},
      {"measurement": "oligomers observed in blood sample", "setting": "[4]; post 1 week of ChOS consumption, 1.8 g daily", "value": "traces"}
    ]},
    {"compound": "CC(=O)N[C@H]1[C@H](O[C@H]2[C@H](O)[C@@H](NC(C)=O)C(O)O[C@@H]2CO)O[C@H](CO)[C@@H](O[C@@H]2O[C@H](CO)[C@@H](O)[C@H](O)[C@H]2NC(C)=O)[C@@H]1O", "note": "(stereo partly drawn) [Homologue A3]", "values": [
      {"measurement": "IC50", "setting": "Chitinase A [1]", "value": 219, "unit": "µM"},
      {"measurement": "Mass calc (HPIEC homologue)", "setting": "[4]; GPC, HPIEC and MALDI-TOF", "value": 30, "unit": "μg"},
      {"measurement": "concentration at 3 weeks", "setting": "[4]; human, serum, oral, 1.8 g daily (ChOS mixture), blood sample after 3 weeks of ChOS consumption, GPC, HPIEC and MALDI-TOF, read-out: Conc (HPIEC homologue)", "value": 4000, "unit": "ng/mL"}
    ]}
  ]
}
